The subject of this assay is BDF1 mice, B16 melanoma ip, median survival T/C. Nature of the assay: NCI In Vivo Anticancer Drug Screen. Data for tumor model B16 Melanoma (intraperitoneal) in B6D2F1 (BDF1) mice. The conditions noted are these: endpoint: median survival time, higher = longer survival. In a few lines: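 Survival or tumor size is measured after treatment of tumor-bearing mice and normalised to the vehicle-treated control group.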

The mark [1] stands for this setting: dose: 12.5 mg/kg/injection, schedule: Q01DX009 (ip), vehicle: saline with Tween-80.
Where [2] appears, read: dose: 25.0 mg/kg/injection, schedule: Q01DX009 (ip), vehicle: saline with Tween-80.
Where [3] appears, read: dose: 50.0 mg/kg/injection, schedule: Q01DX009 (ip), vehicle: saline with Tween-80.

Molecules are shown by their SMILES. Several values for one entry are separate records, joined by “and”; a condition that tells them apart may be missing. Equal values may be shown once. Toxic doses and inconclusive results are not listed.

In the case of `CSC1SCC2C(=O)N(C)C(C(C)C)C(=O)OCC(NC(=O)c3cnc4ccccc4n3)C(=O)NC(C)C(=O)N(C)C1C(=O)N(C)C(C(C)C)C(=O)OCC(NC(=O)c1cnc3ccccc3n1)C(=O)NC(C)C(=O)N2C` (configuration not stated), the T/C (dose: 0.1 micrograms/kg/injection, schedule: Q01DX009 (ip), vehicle: saline with Tween-80) is 106 % of control; the T/C (dose: 0.2 micrograms/kg/injection, schedule: Q01DX009 (ip), vehicle: saline with Tween-80) was 105 % of control; the T/C (dose: 0.4 micrograms/kg/injection, schedule: Q01DX009 (ip), vehicle: saline with Tween-80) was 108 % of control; the T/C (dose: 0.9 micrograms/kg/injection, schedule: Q01DX009 (ip), vehicle: saline with Tween-80) was 108 % of control; the T/C (dose: 0.94 micrograms/kg/injection, schedule: Q01DX009 (ip), vehicle: Klucel (hydroxypropylcellulose) (HPC)) is 93 % of control; the T/C (dose: 0.94 micrograms/kg/injection, schedule: Q01DX009 (ip), vehicle: clinical formulation) was 113 % of control. Moreover, the T/C is 118 % of control (dose: 0.94 micrograms/kg/injection, schedule: Q01DX009 (ip), vehicle: distilled water + alcohol); 151 % of control and 167 % of control (dose: 1.8 micrograms/kg/injection, schedule: Q01DX009 (ip), vehicle: saline with Tween-80); 88 % of control (dose: 1.88 micrograms/kg/injection, schedule: Q01DX009 (ip), vehicle: Klucel (hydroxypropylcellulose) (HPC)); 112 % of control (dose: 1.88 micrograms/kg/injection, schedule: Q01DX009 (ip), vehicle: clinical formulation); 117 % of control (dose: 1.88 micrograms/kg/injection, schedule: Q01DX009 (ip), vehicle: distilled water + alcohol); 156 % of control (dose: 1.9 micrograms/kg/injection, schedule: Q01DX009 (ip), vehicle: saline). Besides, the T/C was 102 % of control (dose: 3.75 micrograms/kg/injection, schedule: Q01DX009 (ip), vehicle: Klucel (hydroxypropylcellulose) (HPC)); 113 % of control (dose: 3.75 micrograms/kg/injection, schedule: Q01DX009 (ip), vehicle: distilled water + alcohol); 123 % of control (dose: 3.8 micrograms/kg/injection, schedule: Q01DX009 (ip), vehicle: saline); 107 % of control (dose: 7.5 micrograms/kg/injection, schedule: Q01DX009 (ip), vehicle: Klucel (hydroxypropylcellulose) (HPC)); 123 % of control (dose: 7.5 micrograms/kg/injection, schedule: Q01DX009 (ip), vehicle: distilled water + alcohol); 152 % of control and 155 % of control (dose: 8.0 micrograms/kg/injection, schedule: Q01DX009 (ip), vehicle: other). For the same compound, the T/C (dose: 15.0 micrograms/kg/injection, schedule: Q01DX009 (ip), vehicle: Klucel (hydroxypropylcellulose) (HPC)) is 115 % of control; the T/C (dose: 15.0 micrograms/kg/injection, schedule: Q01DX009 (ip), vehicle: clinical formulation) was 169 % of control; the T/C (dose: 15.0 micrograms/kg/injection, schedule: Q01DX009 (ip), vehicle: saline) is 174 % of control; the T/C (dose: 16.0 micrograms/kg/injection, schedule: Q01DX009 (ip), vehicle: other) is 161 % of control; the T/C (dose: 16.0 micrograms/kg/injection, schedule: Q01DX009 (ip), vehicle: saline sonified) was 160 % of control and 168 % of control; the T/C (dose: 16.0 micrograms/kg/injection, schedule: Q01DX009 (ip), vehicle: saline) was 160 % of control. In addition, the T/C is 168 % of control (dose: 30.0 micrograms/kg/injection, schedule: Q01DX009 (ip), vehicle: clinical formulation); 88 % of control (dose: 30.0 micrograms/kg/injection, schedule: Q01DX009 (ip), vehicle: saline with Tween-80); 183 % of control (dose: 30.0 micrograms/kg/injection, schedule: Q01DX009 (ip), vehicle: saline); 157 % of control and 158 % of control and 160 % of control (dose: 32.0 micrograms/kg/injection, schedule: Q01DX009 (ip), vehicle: other); 167 % of control and 170 % of control and 189 % of control (dose: 32.0 micrograms/kg/injection, schedule: Q01DX009 (ip), vehicle: saline sonified); 165 % of control (dose: 32.0 micrograms/kg/injection, schedule: Q01DX009 (ip), vehicle: saline). The T/C by setting is: (dose: 32.0 micrograms/kg/injection, schedule: Q04DX003 (ip), vehicle: saline sonified) 156 % of control; (dose: 60.0 micrograms/kg/injection, schedule: Q01DX009 (ip), vehicle: clinical formulation) 173 % of control; (dose: 60.0 micrograms/kg/injection, schedule: Q01DX009 (ip), vehicle: distilled water + alcohol) 168 % of control; (dose: 60.0 micrograms/kg/injection, schedule: Q01DX009 (ip), vehicle: saline) 165 % of control; (dose: 64.0 micrograms/kg/injection, schedule: Q01DX009 (ip), vehicle: other) 159 % of control and 189 % of control and 215 % of control; (dose: 64.0 micrograms/kg/injection, schedule: Q01DX009 (ip), vehicle: saline sonified) 165 % of control and 172 % of control. For the same compound, the T/C (dose: 64.0 micrograms/kg/injection, schedule: Q01DX009 (ip), vehicle: saline) was 176 % of control; the T/C (dose: 64.0 micrograms/kg/injection, schedule: Q04DX003 (ip), vehicle: saline sonified) is 174 % of control; the T/C (dose: 120.0 micrograms/kg/injection, schedule: Q01DX009 (ip), vehicle: Klucel (hydroxypropylcellulose) (HPC)) was 154 % of control; the T/C (dose: 120.0 micrograms/kg/injection, schedule: Q01DX009 (ip), vehicle: distilled water + alcohol) was 173 % of control; the T/C (dose: 120.0 micrograms/kg/injection, schedule: Q01DX009 (ip), vehicle: saline with Tween-80) was 162 % of control and 189 % of control; the T/C (dose: 128.0 micrograms/kg/injection, schedule: Q01DX009 (ip), vehicle: saline sonified) was 164 % of control and 188 % of control. The T/C (dose: 128.0 micrograms/kg/injection, schedule: Q01DX009 (ip), vehicle: saline) is 166 % of control; the T/C (dose: 128.0 micrograms/kg/injection, schedule: Q04DX003 (ip), vehicle: saline sonified) is 165 % of control; the T/C (dose: 192.0 micrograms/kg/injection, schedule: Q04DX003 (ip), vehicle: saline sonified) is 180 % of control; the T/C (dose: 240.0 micrograms/kg/injection, schedule: Q01DX009 (ip), vehicle: Klucel (hydroxypropylcellulose) (HPC)) is 151 % of control; the T/C (dose: 240.0 micrograms/kg/injection, schedule: Q01DX009 (ip), vehicle: saline with Tween-80) is 115 % of control; the T/C (dose: 256.0 micrograms/kg/injection, schedule: Q04DX003 (ip), vehicle: saline sonified) was 175 % of control. Besides, the T/C (dose: 480.0 micrograms/kg/injection, schedule: Q01DX009 (ip), vehicle: Klucel (hydroxypropylcellulose) (HPC)) was 168 % of control.

`O=C1OC(c2ccc([N+](=O)[O-])cc2)=N/C1=C\c1ccc(Cl)cc1`: the T/C (dose: 25.0 mg/kg/injection, schedule: Q01DX009 (ip), vehicle: Klucel (hydroxypropylcellulose) (HPC)) was 102 % of control and the T/C (dose: 50.0 mg/kg/injection, schedule: Q01DX009 (ip), vehicle: Klucel (hydroxypropylcellulose) (HPC)) is 86 % of control.

As for `c1ccc(C[P+](c2ccccc2)(c2ccccc2)c2ccccc2)cc1`, the T/C is 92 % of control (dose: 2.5 mg/kg/injection, schedule: Q01DX009 (ip), vehicle: other); 94 % of control (dose: 5.0 mg/kg/injection, schedule: Q01DX009 (ip), vehicle: other); 94 % of control (dose: 10.0 mg/kg/injection, schedule: Q01DX009 (ip), vehicle: other); 89 % of control (dose: 20.0 mg/kg/injection, schedule: Q01DX009 (ip), vehicle: other).

Consider `CC(Br)C(=O)NC(C)C(=O)O` (configuration not stated), for which the T/C is, setting by setting: under setting [1], 93 % of control; under setting [2], 89 % of control; under setting [3], 90 % of control.

With `NC(=S)N/N=C/c1cccc(CC(O)(C(F)(F)F)C(F)(F)F)n1`, the T/C is 95 % of control (dose: 6.25 mg/kg/injection, schedule: Q01DX009 (ip), vehicle: saline with Tween-80); 116 % of control (dose: 6.25 mg/kg/injection, schedule: Q04DX003 (ip), vehicle: saline with Tween-80); 90 % of control under setting [1]; 116 % of control (dose: 12.5 mg/kg/injection, schedule: Q04DX003 (ip), vehicle: saline with Tween-80); 88 % of control under setting [2]; 100 % of control (dose: 25.0 mg/kg/injection, schedule: Q04DX003 (ip), vehicle: saline with Tween-80).

As for `CCCC(=O)Oc1ccc(/C=N/NC(N)=S)nc1`, the T/C reads like this: under setting [1], 105 % of control; under setting [2], 105 % of control; under setting [3], 106 % of control and 112 % of control; (dose: 100.0 mg/kg/injection, schedule: Q01DX009 (ip), vehicle: saline with Tween-80) 116 % of control; (dose: 200.0 mg/kg/injection, schedule: Q01DX009 (ip), vehicle: saline with Tween-80) 110 % of control.

For the compound `NCCSC(C[N+](=O)[O-])c1ccc2c(c1)OCO2` (configuration not stated), the T/C is 102 % of control (dose: 50.0 mg/kg/injection, schedule: Q04DX003 (ip), vehicle: saline with Tween-80); 105 % of control (dose: 100.0 mg/kg/injection, schedule: Q04DX003 (ip), vehicle: saline with Tween-80); 105 % of control (dose: 200.0 mg/kg/injection, schedule: Q04DX003 (ip), vehicle: saline with Tween-80).

These data come from PubChem BioAssay AID192 (DTP/NCI, 2004).
